Structures can show the parent of a compound that is named as a salt.
Experiments:
[1] = molecular target: [MCL-1]-[compound of formula (I)]—[CRBN/DDB1] (Homo sapiens, UniProt Q07820+Q96SW2); assay: HTRF ternary complex formation assay; type: binding; details: hMcl-1 and CRBN, 180 min at 25° C.; read-out: HTRF ternary complex Average pEC50 by molecule (converted)
Method: The effect of the bifunctional compounds of the invention on the formation of a ternary complex composed of [MCL-1]-[compound of formula (I)]—[CRBN/DDB1] was investigated with HTRF ternary complex assay.
Mix of protein solution was prepared: • 48 nM hMcl-1 and 105.6 nM CRBN were prepared in PPI Europium detection buffer with 2 mM DTT. • Acceptor and donor stock solutions were diluted 100 times in PPI Europium detection buffer. Equal volumes of both reagents were mixed. Finally giving 3 nM of Streptavidin-Eu cryptate ([…]) and 6.67 nM of Anti-6×his-d2 ([…]).
5 μl of protein mix was dispensed to all wells. The tested compounds in dose-response were dispensed onto a white 384-well low volume plate (Greiner, 784075). DMSO was backfilled to all wells, resulting in a final DMSO content of 0.5%. Wells containing only DMSO served as a background. Next, 5 μl of solution with donor and acceptor was added to the wells.
The plate was sealed with transparent film and shaken using a VibroTurbulator for 60 sec at level 3. The plate was then spun down shortly (10 s, 1000 rcf) and incubated at 25° C. for 180 min.
The read-out was performed with plate reader (Pherastar, BMG Labtech) in time resolved fluorescence mode. Filterset: TR 337 665 620.
The results were analyzed as follows: • 1) an average of fluorescence for background signal was calculated and used as a negative control; • 2) raw fluorescence values for tested compounds were normalized against negative controls; • 3) bell shape curve was fitted to a gaussian distribution using a non-linear least squares Gauss-Newton algorithm; • 4) EC50 and pEC50 values were determined.

[2] = Cell viability assay (CellTiter-Glo), ARH-77; type: cell-based; details: human, ARH-77 cells (lymphoblast-like, MCL-1 independent), ARH-77, 24 hours, 1% FBS, read-out: Average pCC50 by molecule ARH-77 (converted)
Description: (§1) The effect of various compounds of the invention on the viability of MV4-11 and ARH-77 cell lines was investigated, using the CTG protocol described below.
(§2) MV4-11 cell lines are derived from acute myeloid leukaemia and it is described in the literature as a MCL-1 dependent cell line, as opposed to lymphoblast-like ARH-77 cell line, which is described as independent of MCL-1 (Tron A E et al. Nat Commun. 2018; 9: 5341; Caenepeel S et al. Cancer Discov. 2018 December; 8(12): 1582-1597).
(§3) Cells (MV4-11 or ARH-77) were seeded on […] in a growth medium with 1% FBS. Next, compound stocks were pre-diluted in DMSO and added directly to the cell culture media (final DMSO concentration: 0.5%). Compound concentrations used in this assay: 1/3 dilutions starting at 30 μM (9 to 12 points). After 24 hours of incubation, cell viability was evaluated using CellTiter-Glo Luminescent Cell Viability Assay (Promega, cat #G7572). The luminescence signal was measured using a CLARIOstar Plus Multi-Mode Microplate Reader (574-590 nm).
(§4) Results were normalized to DMSO control. Collected data were analyzed using GraphPad Prism to calculate pCC50 values.

MV4-11 cells = assay: Cell viability assay (CellTiter-Glo), MV4-11; type: cell-based; details: Homo sapiens, MV4-11, 24 hours, 1% FBS, read-out: Average pCC50 by molecule MV4-11 (converted)
Description: as §1, §2, §3, §4

Chain of [MCL-1]-[compound of formula (I)]—[CRBN/DDB1] (Q07820 whole entry): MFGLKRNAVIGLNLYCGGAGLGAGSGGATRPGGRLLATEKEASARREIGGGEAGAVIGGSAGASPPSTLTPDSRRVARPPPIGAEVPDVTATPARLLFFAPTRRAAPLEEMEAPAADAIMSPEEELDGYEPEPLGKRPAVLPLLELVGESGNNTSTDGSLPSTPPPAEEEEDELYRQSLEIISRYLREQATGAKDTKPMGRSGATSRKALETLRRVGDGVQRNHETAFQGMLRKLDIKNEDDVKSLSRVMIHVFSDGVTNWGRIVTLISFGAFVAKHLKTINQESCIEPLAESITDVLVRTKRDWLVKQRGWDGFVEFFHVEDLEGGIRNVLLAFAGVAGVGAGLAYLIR
Chain of [MCL-1]-[compound of formula (I)]—[CRBN/DDB1] (Q96SW2 whole entry): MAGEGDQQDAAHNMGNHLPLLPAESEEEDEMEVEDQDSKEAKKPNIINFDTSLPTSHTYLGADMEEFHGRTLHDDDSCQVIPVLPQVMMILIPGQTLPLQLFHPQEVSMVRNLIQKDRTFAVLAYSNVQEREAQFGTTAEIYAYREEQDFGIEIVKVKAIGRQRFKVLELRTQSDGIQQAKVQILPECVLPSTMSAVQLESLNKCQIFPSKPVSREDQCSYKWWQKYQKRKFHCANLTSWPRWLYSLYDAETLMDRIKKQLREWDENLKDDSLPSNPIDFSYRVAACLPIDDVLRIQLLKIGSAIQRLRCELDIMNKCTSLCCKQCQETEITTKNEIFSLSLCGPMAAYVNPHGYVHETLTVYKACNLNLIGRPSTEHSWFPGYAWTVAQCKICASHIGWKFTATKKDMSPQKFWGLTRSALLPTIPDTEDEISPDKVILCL
Chain of [MCL-1]-[compound of formula (I)]—[CRBN/DDB1] (Q16531 whole entry partner): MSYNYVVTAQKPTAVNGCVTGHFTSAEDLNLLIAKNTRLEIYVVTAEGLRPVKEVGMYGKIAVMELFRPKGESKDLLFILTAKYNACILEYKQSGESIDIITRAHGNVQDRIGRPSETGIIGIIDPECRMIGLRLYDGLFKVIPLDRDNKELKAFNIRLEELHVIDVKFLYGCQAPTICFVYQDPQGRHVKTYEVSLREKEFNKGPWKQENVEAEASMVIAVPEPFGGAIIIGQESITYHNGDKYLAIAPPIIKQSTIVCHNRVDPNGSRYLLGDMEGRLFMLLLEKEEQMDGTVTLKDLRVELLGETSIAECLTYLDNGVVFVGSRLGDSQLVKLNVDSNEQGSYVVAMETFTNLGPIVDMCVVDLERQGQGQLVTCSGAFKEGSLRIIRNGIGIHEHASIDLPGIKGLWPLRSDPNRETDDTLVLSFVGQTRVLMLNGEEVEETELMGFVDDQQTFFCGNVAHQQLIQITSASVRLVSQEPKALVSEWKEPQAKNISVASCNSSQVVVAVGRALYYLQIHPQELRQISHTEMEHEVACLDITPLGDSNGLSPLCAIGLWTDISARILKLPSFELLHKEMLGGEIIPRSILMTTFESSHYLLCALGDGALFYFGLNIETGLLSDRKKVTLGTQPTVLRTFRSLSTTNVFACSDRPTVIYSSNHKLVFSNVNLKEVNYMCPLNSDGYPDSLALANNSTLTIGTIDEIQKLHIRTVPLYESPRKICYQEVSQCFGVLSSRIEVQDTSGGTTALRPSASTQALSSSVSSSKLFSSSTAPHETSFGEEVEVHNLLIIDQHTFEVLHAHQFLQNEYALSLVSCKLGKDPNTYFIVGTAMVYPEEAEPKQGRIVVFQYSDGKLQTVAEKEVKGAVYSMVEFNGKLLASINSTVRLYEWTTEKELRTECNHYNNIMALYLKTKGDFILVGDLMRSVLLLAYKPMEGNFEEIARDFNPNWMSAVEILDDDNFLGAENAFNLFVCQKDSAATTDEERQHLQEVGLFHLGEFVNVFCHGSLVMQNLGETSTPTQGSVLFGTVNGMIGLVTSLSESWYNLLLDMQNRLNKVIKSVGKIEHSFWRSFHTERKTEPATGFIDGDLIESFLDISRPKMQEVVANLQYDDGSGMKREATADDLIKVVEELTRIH

Row | SMILES | EC50 [1] | CC50 at 24 h [2] | CC50 (MV4-11 cells)
1 | Cc1nn(C)c(C)c1-c1c(Cl)ccc2c(CCCOc3cccc4cc(F)ccc34)c(C(=O)O)n(CCN3CCN(C(=O)Cn4c(C)nc5c(C(=O)NC6CCC(=O)NC6=O)ccc(F)c54)CC3)c12 (stereo not shown) [Compound 1, 6-Chloro-1-(2-(4-(2-(4-((2,6-dioxopiperidin-3-yl)carbamoyl)-7-fluoro-2-methyl-1H-benzo[d]imidazol-1-yl)acetyl)piperazin-1-yl)ethyl)-3-(3-((6-fluoronaphthalen-1-yl)oxy)propyl)-7-(1,3,5-trimethyl-1H-pyrazol-4-yl)-1H-indole-2-carboxylic acid] | < 100 nM | > 10000 nM | < 100 nM
2 | Cc1cc(OCCCc2c(C(=O)O)n(CCN3CCN(CC(=O)NCc4ccc5c(c4)CN(C4CCC(=O)NC4=O)C5=O)CC3)c3c(-c4c(C)nn(C)c4C)c(Cl)ccc23)cc(C)c1Cl (stereo not shown) [Compound 27, 6-Chloro-3-[3-(4-chloro-3,5-dimethylphenoxy)propyl]-1-(2-{4-[({[2-(2,6-dioxopiperidin-3-yl)-1-oxo-2,3-dihydro-1H-isoindol-5-yl]methyl}carbamoyl)methyl]piperazin-1-yl}ethyl)-7-(1,3,5-trimethyl-1H-pyrazol-4-yl)-1H-indole-2-carboxylic acid] | < 100 nM |  | 
3 | CCc1c(OCC(=O)N2CCN(CCn3c(C(=O)O)c(CCCOc4cccc5cc(F)ccc45)c4ccc(Cl)c(-c5c(C)nn(C)c5C)c43)CC2)cccc1C(=O)NC1CCC(=O)NC1=O (stereo not shown) [Compound 24, 6-Chloro-1-{2-[4-(2-{3-[(2,6-dioxopiperidin-3-yl)carbamoyl]-2-ethylphenoxy}acetyl)piperazin-1-yl]ethyl}-3-{3-[(6-fluoronaphthalen-1-yl)oxy]propyl}-7-(1,3,5-trimethyl-1H-pyrazol-4-yl)-1H-indole-2-carboxylic acid] |  | > 10000 nM | 
4 | Cc1nn(C)c(C)c1-c1c(Cl)ccc2c(CCCOc3cccc4cc(F)ccc34)c(C(=O)O)n(CCN3CCN(C(=O)COc4cc(N5CCCCC5)cc5c4CN(C4CCC(=O)NC4=O)C5=O)CC3)c12 (stereo not shown) [Compound 14, 6-Chloro-1-{2-[4-(2-{[2-(2,6-dioxopiperidin-3-yl)-1-oxo-6-(piperidin-1-yl)-2,3-dihydro-1H-isoindol-4-yl]oxy}acetyl)piperazin-1-yl]ethyl}-3-{3-[(6-fluoronaphthalen-1-yl)oxy]propyl}-7-(1,3,5-trimethyl-1H-pyrazol-4-yl)-1H-indole-2-carboxylic acid] | < 31.6 nM | > 3160 nM | < 316 nM
5 | Cc1nn(C)c(C)c1-c1c(Cl)ccc2c(CCCOc3cccc4cc(F)ccc34)c(C(=O)O)n(CCN3C(C)CN(C(=O)COc4cccc5c4CN(C4CCC(=O)NC4=O)C5=O)CC3C)c12 (stereo not shown) [Compound 28, 6-Chloro-1-{2-[4-(2-{[2-(2,6-dioxopiperidin-3-yl)-1-oxo-2,3-dihydro-1H-isoindol-4-yl]oxy}acetyl)-2,6-dimethylpiperazin-1-yl]ethyl}-3-{3-[(6-fluoronaphthalen-1-yl)oxy]propyl}-7-(1,3,5-trimethyl-1H-pyrazol-4-yl)-1H-indole-2-carboxylic acid] | < 100 nM | > 10000 nM | < 316 nM
6 | COCCOCCn1nc(C)c(-c2c(Cl)ccc3c(CCCOc4cccc5cc(F)ccc45)c(C(=O)O)n(CCN4CCN(C(=O)COc5cccc6c5CN(C5CCC(=O)NC5=O)C6=O)CC4)c23)c1C (stereo not shown) [Compound 147, 1-(2-(2-Carboxy-6-chloro-3-(3-((6-fluoronaphthalen-1-yl)oxy)propyl)-7-(1-(2-(2-methoxyethoxy)ethyl)-3,5-dimethyl-1H-pyrazol-4-yl)-1H-indol-1-yl)ethyl)-4-(2-((2-(2,6-dioxopiperidin-3-yl)-1-oxoisoindolin-4-yl)oxy)acetyl)piperazin-1-ium trifluoroacetate] | < 100 nM | > 31600 nM | < 100 nM
7 | Cc1nn(C)c(C)c1-c1c(Cl)ccc2c(CCCOc3cccc4cc(F)ccc34)c(C(=O)O)n(CCN3CCN(C(=O)COc4ccc5c(c4)n(C)c(=O)n5C4CCC(=O)NC4=O)CC3)c12 (stereo not shown) [Compound 22, 6-Chloro-1-(2-(4-(2-((1-(2,6-dioxopiperidin-3-yl)-3-methyl-2-oxo-2,3-dihydro-1H-benzo[d]imidazol-5-yl)oxy)acetyl)piperazin-1-yl)ethyl)-3-(3-((6-fluoronaphthalen-1-yl)oxy)propyl)-7-(1,3,5-trimethyl-1H-pyrazol-4-yl)-1H-indole-2-carboxylic acid] | < 100 nM | > 31600 nM | < 31.6 nM
8 | Cc1nc2ccc(C(=O)NCC(=O)N3CCN(CCn4c(C(=O)O)c(CCCOc5cccc6cc(F)ccc56)c5ccc(Cl)c(-c6c(C)nn(C)c6C)c54)CC3)cc2cc1C1CCC(=O)NC1=O (stereo not shown) [Compound 5, 6-Chloro-1-{2-[4-(2-{[3-(2,6-dioxopiperidin-3-yl)-2-methylquinolin-6-yl]formamido}acetyl)piperazin-1-yl]ethyl}-3-{3-[(6-fluoronaphthalen-1-yl)oxy]propyl}-7-(1,3,5-trimethyl-1H-pyrazol-4-yl)-1H-indole-2-carboxylic acid] | < 100 nM | > 10000 nM | 
9 | CCc1cc(OCC(=O)N2CCN(CCn3c(C(=O)O)c(CCCOc4cccc5cc(F)ccc45)c4ccc(Cl)c(-c5c(C)nn(C)c5C)c43)CC2)ccc1C(=O)NC1CCC(=O)NC1=O (stereo not shown) [Compound 25, 6-Chloro-1-(2-(4-(2-(4-((2,6-dioxopiperidin-3-yl)carbamoyl)-3-ethylphenoxy)acetyl)piperazin-1-yl)ethyl)-3-(3-((6-fluoronaphthalen-1-yl)oxy)propyl)-7-(1,3,5-trimethyl-1H-pyrazol-4-yl)-1H-indole-2-carboxylic acid] |  | > 3160 nM | 
10 | Cc1nn(C)c(C)c1-c1c(Cl)ccc2c(CCCOc3cccc4cc(F)ccc34)c(C(=O)O)n(CCN3CCN(C(=O)COc4cc(N(C)C)cc5c4CN(C4CCC(=O)NC4=O)C5=O)CC3)c12 (stereo not shown) [Compound 13, 6-Chloro-1-{2-[4-(2-{[6-(dimethylamino)-2-(2,6-dioxopiperidin-3-yl)-1-oxo-2,3-dihydro-1H-isoindol-4-yl]oxy}acetyl)piperazin-1-yl]ethyl}-3-{3-[(6-fluoronaphthalen-1-yl)oxy]propyl}-7-(1,3,5-trimethyl-1H-pyrazol-4-yl)-1H-indole-2-carboxylic acid] | < 316 nM | > 10000 nM | 
11 | Cc1nc2c(NCC(=O)N3CCN(CCn4c(C(=O)O)c(CCCOc5cccc6cc(F)ccc56)c5ccc(Cl)c(-c6c(C)nn(C)c6C)c54)CC3)cccc2cc1N1CCC(=O)NC1=O [Compound 146, 6-Chloro-1-(2-(4-((3-(2,4-dioxotetrahydropyrimidin-1(2H)-yl)-2-methylquinolin-8-yl)glycyl)piperazin-1-yl)ethyl)-3-(3-((6-fluoronaphthalen-1-yl)oxy)propyl)-7-(1,3,5-trimethyl-1H-pyrazol-4-yl)-1H-indole-2-carboxylic acid] | < 31.6 nM |  | < 100 nM
12 | Cc1nn(C)c(C)c1-c1c(Cl)ccc2c(CCCOc3cccc4cc(F)ccc34)c(C(=O)O)n(CCN3CCN(CC(=O)Nc4cccc5c4CN(C4CCC(=O)NC4=O)C5=O)CC3)c12 (stereo not shown) [Compound 29, 6-Chloro-1-{2-[4-({[2-(2,6-dioxopiperidin-3-yl)-1-oxo-2,3-dihydro-1H-isoindol-4-yl]carbamoyl}methyl)piperazin-1-yl]ethyl}-3-{3-[(6-fluoronaphthalen-1-yl)oxy]propyl}-7-(1,3,5-trimethyl-1H-pyrazol-4-yl)-1H-indole-2-carboxylic acid] | < 100 nM | > 10000 nM | 
13 | Cc1nn(C)c(C)c1-c1c(Cl)ccc2c(CCCOc3cccc4cc(F)ccc34)c(C(=O)O)n(CCN3CCN(CC(=O)NCc4ccc5c(c4)CN(C4CCC(=O)NC4=O)C5=O)CC3)c12 (stereo not shown) [Compound 26, 6-Chloro-1-(2-{4-[({[2-(2,6-dioxopiperidin-3-yl)-1-oxo-2,3-dihydro-1H-isoindol-5-yl]methyl}carbamoyl)methyl]piperazin-1-yl}ethyl)-3-{3-[(6-fluoronaphthalen-1-yl)oxy]propyl}-7-(1,3,5-trimethyl-1H-pyrazol-4-yl)-1H-indole-2-carboxylic acid] | < 100 nM | > 31600 nM | 

Reference: patent publication US20260248927A1, “TARGETED PROTEIN DEGRADATION USING BIFUNCTIONAL COMPOUNDS THAT BIND UBIQUITIN LIGASE AND TARGET MCL-1 PROTEIN” (Captor Therapeutics S.A., priority 2022, published 2026)
